Patent US20100113363A1, “Use of GLP-1 Peptides” (Novo Nordisk A/S, priority 1996, published 2010)
Where two headings read alike, the source gives them in different places. No end group written: not given here.

How the values were obtained:
[1] = rats, Tang-Christensen et al., cited from earlier work
[2] = iv infusion of GLP-1(7-36)amide in healthy human volunteers: visual analogue scale ratings and ad libitum lunch energy intake; format: in vivo; conditions: iv infusion 50 pmol/(kg·h)
Excerpt: Healthy human volunteers (20 subjects) were in a double-blind crossover trial given an iv infusion of 50 pmol/(kg·h) of GLP-1(7-36)amide or saline on separate, but otherwise identical experimental days. The infusion was started at 9.00 and lasted until 15.00. At 9.45 the subjects received a fixed amount of breakfast and at 14.15 they had lunch of an identical composition but ad libitum. The subjects rated their feeling of satiety, hunger, fullness and appetite on a visual analogue scale every half hour. The results are given below:
The energy intake of each subjects was measured. The intakes were 3.9 MJ with GLP-1 and 4.3 MJ with Saline resulting in a p-value of 0.009.

[3] = Appetite suppression in mice: sucrose consumption, tested immediately after intraperitoneal injection; format: in vivo; conditions: 85 micrograms (3.4 mg/kg) intraperitoneally, 10 minute period, p-value 0.002
Procedure: Mice were deprived of their normal food for two days and given free access to a 20% sucrose solution on the first day of food deprivation. After the two day food deprivation period, the mice were injected intraperitoneally with 0.5ml of a solution containing the test substance. Immediately after injection, individual mice were placed in one of eight 15 cm square test boxes with a stainless steel grid floor and a glass drinking tube which projected into the box. […] Consumption of the sucrose solution was measured over a 10 minute period by electronically recording the total amount of contact with the sucrose solution during the test session. The degree of appetite suppression produced by a given test substance was determined by statistical comparison of the mean duration of sucrose consumption by control (vehicle treated) mice with that of mice treated with a test substance. The degree of appetite suppression in a treated group of mice was expressed as percent difference between the test and control group's response duration means. […]

[4] = Suppression of appetite in mice by subcutaneously injected synthetic GLP-1(7-36)amide: Complan consumption; format: in vivo; conditions: p<0.001
Procedure: The test method was as described in Example 3 except that the mice were pre-exposed to formula milk (Complan®—a nutritionally complete infant milk substitute) for one day, then fasted […]. On the test day, consumption of Complan® was measured for each mouse during a 10 min period.
Mice were tested for appetite suppression by subcutaneous injection of GLP-1(7-36)amide dissolved in phosphate buffered saline.

[5] = rats, Turton et al., cited from earlier work
[6] = administered intracerebroventricularly

Substance	effect on food intake ([1]; route not stated)	energy intake ([2]; ad libitum lunch, saline 4.3 MJ, p-value 0.009)	Satiety (visual analogue scale) ([2]; versus saline, p = 0.006)	Appetite (visual analogue scale) ([2]; versus saline, p = 0.007)	Hunger (visual analogue scale) ([2]; versus saline, p = 0.007)	Fullness (visual analogue scale) ([2]; versus saline, p = 0.010)	suppression of sucrose consumption [3]	suppression of feeding ([4]; 1 mg/kg subcutaneous, 30 min after injection)	maximum effect, suppression of feeding ([4]; 20 mg/kg subcutaneous (highest dose tested))	effect on food intake [5, 6]	effect on food intake ([5]; peripheral administration)	effect on food intake [1, 6]	effect on food intake ([1]; peripherally administered)
GLP-1(1-36)amide (HDEFERHAEGTFTSDVSSYLEGQAAKEFIAWLVKGR-NH2; UniProt P01275 92-127, looked up, fragment) [fragment 1-36 of GLP-1, C-terminal amide]	no effect												
GLP-1(7-36)amide		3.9 mJ	GLP-1 > Saline, p = 0.006	GLP-1 < Saline, p = 0.007	GLP-1 < Saline, p = 0.007	GLP-1 > Saline, p = 0.010	60%	45%	60%	profound effect	inactive	profound effect	no significant effect
